Experiments:
Test in all cases: relative viability (nuclei count vs DMSO), 5 days (fraction); higher = more cells survive
[1] = compound: Cn1nnc2c(C(N)=O)ncn2c1=O [Temozolomide] + CCNC(=O)c1noc(-c2cc(C(C)C)c(O)cc2O)c1-c1ccc(CN2CCOCC2)cc1 [Luminespib] (partner 0.01 µM)
Method in brief: (§1)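 A single step with final 0.05% Triton X-100, 1% formaldehyde and 1 ug/ml Hoechst fixed the cells and stained nuclei 5 days after treatment. Lung cancer cell lines in 1536-well plates had been treated by pin tool the day after seeding with one drug alone or a fixed anchor-drug dose plus five library-drug doses (not always all listed) in √10 steps, and nuclei were counted on 4× images. Relative viability is the ratio of nuclei in treated wells to nuclei in vehicle wells, taken as the median of duplicate plates.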

[2] = compound: Cn1nnc2c(C(N)=O)ncn2c1=O [Temozolomide] + Cc1nc(NC(=O)N2CCC[C@H]2C(N)=O)sc1-c1ccnc(C(C)(C)C(F)(F)F)c1 [Alpelisib] (partner 2 µM)
Method in brief: as §1

[3] = compound: C[C@@H](C(=O)N[C@@H](C1CCCCC1)C(=O)N2CCC[C@H]2C(=O)N[C@@H]3[C@@H](CC4=CC=CC=C34)OCC#CC#CCO[C@@H]5CC6=CC=CC=C6[C@@H]5NC(=O)[C@@H]7CCCN7C(=O)[C@H](C8CCCCC8)NC(=O)[C@H](C)NC)NC [AZD5582] + CC1(C)CCC(c2ccc(Cl)cc2)=C(CN2CCN(c3ccc(C(=O)NS(=O)(=O)c4ccc(N[C@H](CCN5CCOCC5)CSc5ccccc5)c(S(=O)(=O)C(F)(F)F)c4)cc3)CC2)C1 [Navitoclax] (partner 0.5 µM)
Method in brief: as §1

[4] = compound: C[C@@H](C(=O)N[C@@H](C1CCCCC1)C(=O)N2CCC[C@H]2C(=O)N[C@@H]3[C@@H](CC4=CC=CC=C34)OCC#CC#CCO[C@@H]5CC6=CC=CC=C6[C@@H]5NC(=O)[C@@H]7CCCN7C(=O)[C@H](C8CCCCC8)NC(=O)[C@H](C)NC)NC [AZD5582] + N=C(N)NC(=N)NCCc1ccccc1 [Phenformin] (partner 250 µM)
Method in brief: as §1

| Cell Line | relative viability ([1]; first compound 0.2 µM) | relative viability ([1]; first compound 0.6325 µM) | relative viability ([1]; first compound 2 µM) | relative viability ([1]; first compound 6.325 µM) | relative viability ([1]; first compound 20 µM) | relative viability ([2]; first compound 0.2 µM) | relative viability ([2]; first compound 0.6325 µM) | relative viability ([2]; first compound 2 µM) | relative viability ([2]; first compound 6.325 µM) | relative viability ([2]; first compound 20 µM) | relative viability ([3]; first compound 0.005 µM) | relative viability ([3]; first compound 0.01581 µM) | relative viability ([3]; first compound 0.05 µM) | relative viability ([4]; first compound 0.001581 µM) | relative viability ([4]; first compound 0.005 µM) | relative viability ([4]; first compound 0.01581 µM) | relative viability ([4]; first compound 0.05 µM) | relative viability ([3]; first compound 0.001581 µM) |
| --- | --- | --- | --- | --- | --- | --- | --- | --- | --- | --- | --- | --- | --- | --- | --- | --- | --- | --- |
| LCLC-97TM1 | 0.835 | 0.7 | 0.749 | 0.806 | 0.75 | 0.253 | 0.236 | 0.28 | 0.246 | 0.249 | 0.329 | 0.347 | 0.32 | 0.402 | 0.467 | 0.2 | 0.409 | – |
| LCLC-103H | 1.09 | 1.04 | 1.07 | 1.01 | 0.872 | 0.819 | 0.976 | 1.09 | 0.999 | 0.927 | – | – | – | 0.328 | 0.316 | 0.272 | 0.269 | – |
| LK-2 | 0.177 | 0.186 | 0.199 | 0.163 | 0.187 | 0.544 | 1.07 | 1.1 | 0.466 | 0.391 | 0.895 | 0.803 | 1.21 | 0.433 | 0.588 | 0.393 | 0.402 | 0.754 |
| LOU-NH91 | 0.341 | 0.341 | 0.323 | 0.325 | 0.361 | 0.57 | 0.726 | 0.789 | 0.702 | 0.47 | 0.724 | 0.704 | 0.678 | 0.716 | 0.698 | 0.592 | 0.741 | 0.652 |
| LU99A | 0.265 | 0.312 | 0.288 | 0.23 | 0.225 | 0.619 | 0.49 | 0.5 | 0.489 | 0.56 | 0.998 | 0.805 | 0.976 | 0.785 | 0.927 | 0.819 | 0.997 | 0.882 |

— the supplement of paper PMC10307832
